# Measurements: patent US20260266848A1, “COMPOSITIONS AND METHODS FOR DIAGNOSING AND TREATING DYSTONIA” (Duke University, priority 2023, published 2026)
# System: WT MEF EVs
# Test: Quantitative LC-MS/MS proteomics of EVs from ISRIB-treated WT MEF cultures
# Assay type: cell-based, mouse
compound,measurement,setting,value
"O=C(COc1ccc(Cl)cc1)NC1CCC(NC(=O)COc2ccc(Cl)cc2)CC1 (centres unmarked) [ISRIB, reference compound]",Hnrnpc (HNRNPC) EV abundance Log2_FC,"WT+ISRIB/WT, 50 nM, 24 h",1.478
same,Ipo9 (IPO9) EV abundance Cohen's d,"WT+ISRIB/WT, 50 nM, 24 h",−0.4661
same,Ipo9 (IPO9) EV abundance Log2_FC,"WT+ISRIB/WT, 50 nM, 24 h",−0.5386
same,Jam3 (JAM3) EV abundance Cohen's d,"WT+ISRIB/WT, 50 nM, 24 h",−0.3267
same,Jam3 (JAM3) EV abundance Log2_FC,"WT+ISRIB/WT, 50 nM, 24 h",0.373
same,Lipg (LIPG) EV abundance Cohen's d,"WT+ISRIB/WT, 50 nM, 24 h",0.7395
same,Lipg (LIPG) EV abundance Log2_FC,"WT+ISRIB/WT, 50 nM, 24 h",−0.3639
same,Lrrc59 (LRRC59) EV abundance Cohen's d,"WT+ISRIB/WT, 50 nM, 24 h",−0.6884
same,Lrrc59 (LRRC59) EV abundance Log2_FC,"WT+ISRIB/WT, 50 nM, 24 h",0.3431
same,Mapk3 (MAPK3) EV abundance Cohen's d,"WT+ISRIB/WT, 50 nM, 24 h",−0.8739
same,Mapk3 (MAPK3) EV abundance Log2_FC,"WT+ISRIB/WT, 50 nM, 24 h",−0.163
same,Mars (MARS1) EV abundance Cohen's d,"WT+ISRIB/WT, 50 nM, 24 h",0.05955
same,Mars (MARS1) EV abundance Log2_FC,"WT+ISRIB/WT, 50 nM, 24 h",−0.3717
same,Mrc2 (MRC2) EV abundance Cohen's d,"WT+ISRIB/WT, 50 nM, 24 h",0.2117
same,Mrc2 (MRC2) EV abundance Log2_FC,"WT+ISRIB/WT, 50 nM, 24 h",−0.2942
same,Myh9 (MYH9) EV abundance Cohen's d,"WT+ISRIB/WT, 50 nM, 24 h",−0.02365
same,Myh9 (MYH9) EV abundance Log2_FC,"WT+ISRIB/WT, 50 nM, 24 h",0.05232
same,Ndnf (NDNF) EV abundance Cohen's d,"WT+ISRIB/WT, 50 nM, 24 h",1.071
same,Ndnf (NDNF) EV abundance Log2_FC,"WT+ISRIB/WT, 50 nM, 24 h",−0.1375
same,Pcmt1 (PCMT1) EV abundance Cohen's d,"WT+ISRIB/WT, 50 nM, 24 h",−0.8553
same,Pcmt1 (PCMT1) EV abundance Log2_FC,"WT+ISRIB/WT, 50 nM, 24 h",−0.06624
same,Pi4ka (PI4KA) EV abundance Cohen's d,"WT+ISRIB/WT, 50 nM, 24 h",−0.4893
same,Pi4ka (PI4KA) EV abundance Log2_FC,"WT+ISRIB/WT, 50 nM, 24 h",0.3826
same,Pitpnb (PITPNB) EV abundance Cohen's d,"WT+ISRIB/WT, 50 nM, 24 h",−1.114
same,Pitpnb (PITPNB) EV abundance Log2_FC,"WT+ISRIB/WT, 50 nM, 24 h",1.461
same,Prpsap2 (PRPSAP2) EV abundance Cohen's d,"WT+ISRIB/WT, 50 nM, 24 h",0.2158
same,Prpsap2 (PRPSAP2) EV abundance Log2_FC,"WT+ISRIB/WT, 50 nM, 24 h",−0.6725
same,Psmc5 (PSMC5) EV abundance Cohen's d,"WT+ISRIB/WT, 50 nM, 24 h",0.4267
same,Psmc5 (PSMC5) EV abundance Log2_FC,"WT+ISRIB/WT, 50 nM, 24 h",−0.3622
same,Psmd12 (PSMD12) EV abundance Cohen's d,"WT+ISRIB/WT, 50 nM, 24 h",0.00373
same,Psmd12 (PSMD12) EV abundance Log2_FC,"WT+ISRIB/WT, 50 nM, 24 h",−0.3805
same,Psme4 (PSME4) EV abundance Cohen's d,"WT+ISRIB/WT, 50 nM, 24 h",−0.8162
same,Psme4 (PSME4) EV abundance Log2_FC,"WT+ISRIB/WT, 50 nM, 24 h",−0.7974
same,Ptma (PTMA) EV abundance Cohen's d,"WT+ISRIB/WT, 50 nM, 24 h",0.6355
same,Ptma (PTMA) EV abundance Log2_FC,"WT+ISRIB/WT, 50 nM, 24 h",2.638
same,Rap2b (RAP2B) EV abundance Cohen's d,"WT+ISRIB/WT, 50 nM, 24 h",0.3788
same,Rap2b (RAP2B) EV abundance Log2_FC,"WT+ISRIB/WT, 50 nM, 24 h",−0.1245
same,Rbm3 (RBM3) EV abundance Cohen's d,"WT+ISRIB/WT, 50 nM, 24 h",−0.3159
same,Rbm3 (RBM3) EV abundance Log2_FC,"WT+ISRIB/WT, 50 nM, 24 h",0.2028
same,Rhoa (RHOA) EV abundance Cohen's d,"WT+ISRIB/WT, 50 nM, 24 h",−1.25
same,Rhoa (RHOA) EV abundance Log2_FC,"WT+ISRIB/WT, 50 nM, 24 h",−0.00598
same,Rpl10 (RPL10) EV abundance Cohen's d,"WT+ISRIB/WT, 50 nM, 24 h",−0.35
same,Rpl10 (RPL10) EV abundance Log2_FC,"WT+ISRIB/WT, 50 nM, 24 h",0.00077
same,Rpl13a (RPL13A) EV abundance Cohen's d,"WT+ISRIB/WT, 50 nM, 24 h",0.3123
same,Rpl13a (RPL13A) EV abundance Log2_FC,"WT+ISRIB/WT, 50 nM, 24 h",0.04217
same,Rps13 (RPS13) EV abundance Cohen's d,"WT+ISRIB/WT, 50 nM, 24 h",−0.2269
same,Rps13 (RPS13) EV abundance Log2_FC,"WT+ISRIB/WT, 50 nM, 24 h",0.2809
same,Sec31a (SEC31A) EV abundance Cohen's d,"WT+ISRIB/WT, 50 nM, 24 h",−0.3764
same,Sec31a (SEC31A) EV abundance Log2_FC,"WT+ISRIB/WT, 50 nM, 24 h",−0.2838
same,Slc2a1 (SLC2A1) EV abundance Cohen's d,"WT+ISRIB/WT, 50 nM, 24 h",−0.34
same,Slc2a1 (SLC2A1) EV abundance Log2_FC,"WT+ISRIB/WT, 50 nM, 24 h",0.08012
same,Stom (STOM) EV abundance Cohen's d,"WT+ISRIB/WT, 50 nM, 24 h",−0.7279
same,Stom (STOM) EV abundance Log2_FC,"WT+ISRIB/WT, 50 nM, 24 h",0.1135
same,Tardbp (TARDBP) EV abundance Cohen's d,"WT+ISRIB/WT, 50 nM, 24 h",−0.3087
same,Tardbp (TARDBP) EV abundance Log2_FC,"WT+ISRIB/WT, 50 nM, 24 h",−0.06285
same,Tgfb2 (TGFB2) EV abundance Cohen's d,"WT+ISRIB/WT, 50 nM, 24 h",0.6984
same,Tgfb2 (TGFB2) EV abundance Log2_FC,"WT+ISRIB/WT, 50 nM, 24 h",−0.319
same,Tln1 (TLN1) EV abundance Cohen's d,"WT+ISRIB/WT, 50 nM, 24 h",−0.39
same,Tln1 (TLN1) EV abundance Log2_FC,"WT+ISRIB/WT, 50 nM, 24 h",−0.05074
same,Tln2 (TLN2) EV abundance Cohen's d,"WT+ISRIB/WT, 50 nM, 24 h",−0.7484
same,Tln2 (TLN2) EV abundance Log2_FC,"WT+ISRIB/WT, 50 nM, 24 h",−0.02524
same,Tubb1 (TUBB1) EV abundance Cohen's d,"WT+ISRIB/WT, 50 nM, 24 h",0.3005
same,Tubb1 (TUBB1) EV abundance Log2_FC,"WT+ISRIB/WT, 50 nM, 24 h",0.1945
same,Usp7 (USP7) EV abundance Cohen's d,"WT+ISRIB/WT, 50 nM, 24 h",−0.3328
same,Usp7 (USP7) EV abundance Log2_FC,"WT+ISRIB/WT, 50 nM, 24 h",−0.8347
same,Wdr26 (WDR26) EV abundance Cohen's d,"WT+ISRIB/WT, 50 nM, 24 h",−0.2688
same,Wdr26 (WDR26) EV abundance Log2_FC,"WT+ISRIB/WT, 50 nM, 24 h",−0.05756
same,Zyx (ZYX) EV abundance Cohen's d,"WT+ISRIB/WT, 50 nM, 24 h",−0.131
same,Zyx (ZYX) EV abundance Log2_FC,"WT+ISRIB/WT, 50 nM, 24 h",0.1801
same,Pearson r between DYT genotype effects and ISRIB effects,entire proteome,0.37
same,Pearson r between DYT genotype effects and ISRIB effects,genotype-disrupted proteins,0.40
